Source: PubChem BioAssay AID1963835 (Molecular Pharmacology Branch, DTP, NCI, 2024)
Values joined by “and” are separate entries in the source; they are usually repeats but may differ in a detail not shown here. Equal entries are not always repeated.

Tested on: 699152-130-R-J1-PDC complex spheroid viability
Assay: Anticancer human tumor 699152-130-R-J1-PDC patient-derived pancreatic carcinoma cell line growth inhibition [POLQ]
Details: for viability, T/C: stronger effect = lower value
Method: Multicellular complex tumor spheroid response to Polymerase (POL) inhibitors (novobiocin, ART-558, RP6685) in combination with a variety of drugs and investigational agents in selected tumor cell lines
The POL inhibitors (novobiocin, ART-558, and RP6685) were evaluated both individually and in combination with standard of care and investigational anticancer small molecules within a complex spheroid model of solid tumors. . Complex spheroids include a stromal component modeled by human endothelial cells (HUVEC) and fibroblasts modeled by human mesenchymal stem cells (MSCs). The concentration ranges selected for each drug and investigational agent were based upon clinically achievable concentrations if the clinical Cmax of the agent was known.
Compounds. The drugs and investigational agents: novobiocin (NSC847541), ART-558 (NSC835418), RP-6685 (NSC848927), peposertib (NSC802822), ceralasertib (NSC780249), elimusertib (NSC800525), camonsertib (NSC841442), AZD-1390 (NSC803789), olaparib (NSC753686), talazoparib (NSC767125), rucaparib (NSC756644), sotorasib (NSC818433), MRTX-1133 (NSC836407), SN-38 (NSC673596), topotecan (NSC609699), epotoside (NSC141540), doxorubicin (NSC123127), gemcitabine (NSC613327), 5-fluorouracil (NSC19893), paclitaxel (NSC125973), vemurafenib (NSC761431), MSA-2 (NSC828583), SN-011 (NSC837082), adavosertib (NSC754352), prexasertib (NSC758257), carboplatin (NSC241240) and oxaliplatin (NSC266046), were obtained from the National Cancer Institute (NCI) Developmental Therapeutics Program Chemical Repository (21). The FDA-approved anticancer drug set is available from the Developmental Therapeutics Program at https://dtp.cancer.gov/organization/dscb/obtaining/. […] The stock solutions were prepared in dimethyl sulfoxide (DMSO, Sigma-Aldrich, St. Louis, MO, cat. D2650), except for the platinum compounds which were prepared in saline (Quality Biological, Gaithersburg, MD, cat. 114-055-101), at 800-fold the tested concentration and stored at -70 degrees C prior to their use. All drugs and investigational agents were tested over a range starting from a high concentration at or near the clinical Cmax and decreasing in half-log increments. If the clinical Cmax for an agent had not been determined, the highest concentration tested was 10 microM, except for SN-38, which was tested at a high concentration of 1 microM.
Cell Culture. All cells were maintained in an incubator at 37 degrees C and 5% CO2 with 95% humidity. The PDC lines were cultured according to standard operating procedures established by the NCI PDMR (https://pdmr.cancer.gov). Table 3 of the manuscript, lists the cell lines along with the number of the three cell types plated to form the mct-spheroids and media for tumor cell growth. After thawing, all PDC lines, except 997537-175-T-J1-PDC and 415267-285-R-J2-PDC, were cultured in Matrigel-coated flasks prepared with a working solution of 1X Ham's F-12 nutrient mix, without supplementation (Thermo Fisher Scientific, cat. 11765054), 100 U/mL penicillin-streptomycin (Thermo Fisher Scientific, cat. 15140122), and 2.5% Matrigel (Corning Inc., Corning, NY, cat. 354248) for the first three passages. The two PDC lines 997537-175-T-J1-PDC and 415267-285-R-J2-PDC were cultured on uncoated flasks. The 857933-349-R-J2-PDC line was cultured in 6C/Colon 1B media containing advanced DMEM/F-12 (Thermo Fisher Scientific, cat. 12634028), 10 mM HEPES (Thermo Fisher Scientific, cat. 15630080), 1X GlutaMAX supplement (Thermo Fisher Scientific, cat. 35050061), 0.1 mg/mL primocin (InvivoGen, San Diego, CA, cat. ant-pm-2), 10% defined fetal bovine serum, heat inactivated (HyClone Laboratories Inc., Logan, UT, cat. SH30070.03HI), 50% L-WRN conditioned media (ATCC, cat. CRL-3276), 1.25 mM N-Acetyl-L-cysteine (Sigma-Aldrich, cat. A9165), 10 mM nicotinamide (Sigma-Aldrich, cat. N0636), 1X B-27 supplement (Thermo Fisher Scientific, cat. 17504044), 1X N-2 supplement (Thermo Fisher Scientific, cat. […]
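Also: spheroids exposed to agents for 7 days before viability reading.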
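For viability, T/C in this document: percent of DMSO vehicle control viability so 100% = vehicle and 0% = no viable signal.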

## O=C(c1cc(Cc2n[nH]c(=O)c3ccccc23)ccc1F)N1CCN(C(=O)C2CC2)CC1
Compound 0.0316 µM
  viability, T/C: 101% and 104% and 103%
Compound 0.1 µM
  viability, T/C: 99.6% and 92.1% and 91.6%
Compound 0.316 µM
  viability, T/C: 100% and 98% and 95.9%
Compound 1 µM
  viability, T/C: 93.5% and 90.7% and 103%
Compound 3.16 µM
  viability, T/C: 91.4% and 87.8% and 91.5%
Compound 10 µM
  viability, T/C: 71.4% and 59.8% and 88.3%
Curve of compound
  IC50: > 10000 nM

## CC1COCCN1c1cc(-c2ccnn2C)c2ccnc(-c3ccn[nH]3)c2n1 (stereo not given)
Compound 0.0316 µM
  viability, T/C: 94.9% and 97.6% and 88.8%
Compound 0.1 µM
  viability, T/C: 89.1% (2×) and 80.8%
Compound 0.316 µM
  viability, T/C: 71.1% and 68.5% and 77.8%
Compound 1 µM
  viability, T/C: 63.7% and 58.2% and 58.9%
Compound 3.16 µM
  viability, T/C: 49% and 54.1% and 49.1%
Compound 10 µM
  viability, T/C: 56.3% and 58.4% and 50.5%
Curve of compound
  IC50: > 10000 nM and 5900 nM

## Nc1ccc(C#CCN(C(=O)Cc2ncc(C(F)(F)F)cc2C(F)(F)F)c2ccc(F)cc2)nn1
Compound 0.0316 µM
  viability, T/C: 96.2% [middle of 13 runs]
Compound 0.1 µM
  viability, T/C: 99.3% [middle of 13 runs]
Compound 0.316 µM
  viability, T/C: 101% [middle of 13 runs]
Compound 1 µM
  viability, T/C: 101% [middle of 13 runs]
Compound 3.16 µM
  viability, T/C: 103% [middle of 13 runs]
Compound 10 µM
  viability, T/C: 113% [middle of 13 runs]
Compound alone, run of 12/05/2023
  IC50: > 10000 nM

## COc1cccc(OCCCN)c1-c1cc(Nc2cnc(C#N)cn2)n[nH]1
Compound 0.00316 µM
  viability, T/C: 94% and 98.1% and 84.3%
Compound 0.01 µM
  viability, T/C: 84.5% and 83.7% and 91.9%
Compound 0.0316 µM
  viability, T/C: 66% and 60% and 74.3%
Compound 0.1 µM
  viability, T/C: 56.1% and 57.8% and 62.7%
Compound 0.316 µM
  viability, T/C: 55.3% and 56.8% and 60.6%
Compound 1 µM
  viability, T/C: 50.4% and 52.5% and 58.4%
Curve of compound
  IC50: > 1000 nM

## Nc1ccn(C2OC(CO)C(O)C2(F)F)c(=O)n1 (stereo not given) + COC1C(OC(N)=O)C(O)C(Oc2ccc3c(O)c(NC(=O)c4ccc(O)c(CC=C(C)C)c4)c(=O)oc3c2C)OC1(C)C
Curve of first compound, second compound 0.0316 µM
  IC50: 202 nM
Curve of first compound, second compound 0.1 µM
  IC50: 262 nM
Curve of first compound, second compound 0.316 µM
  IC50: 376 nM
Curve of first compound, second compound 1 µM
  IC50: 264 nM
Curve of first compound, second compound 3.16 µM
  IC50: 475 nM
Curve of first compound, second compound 10 µM
  IC50: 765 nM
Second compound 0.0316 µM, first compound 0.0316 µM
  viability, T/C: 68.1%
Second compound 0.0316 µM, first compound 0.1 µM
  viability, T/C: 52.2%
Second compound 0.0316 µM, first compound 0.316 µM
  viability, T/C: 42.9%
Second compound 0.0316 µM, first compound 1 µM
  viability, T/C: 48.3%
Second compound 0.0316 µM, first compound 3.16 µM
  viability, T/C: 39%
Second compound 0.0316 µM, first compound 10 µM
  viability, T/C: 31.2%
Second compound 0.1 µM, first compound 0.0316 µM
  viability, T/C: 73.5%
Second compound 0.1 µM, first compound 0.1 µM
  viability, T/C: 56.1%
Second compound 0.1 µM, first compound 0.316 µM
  viability, T/C: 48.7%
Second compound 0.1 µM, first compound 1 µM
  viability, T/C: 44.8%
Second compound 0.1 µM, first compound 3.16 µM
  viability, T/C: 35.4%
Second compound 0.1 µM, first compound 10 µM
  viability, T/C: 34.3%
Second compound 0.316 µM, first compound 0.0316 µM
  viability, T/C: 64.4%
Second compound 0.316 µM, first compound 0.1 µM
  viability, T/C: 56.6%
Second compound 0.316 µM, first compound 0.316 µM
  viability, T/C: 49.7%
Second compound 0.316 µM, first compound 1 µM
  viability, T/C: 44.4%
Second compound 0.316 µM, first compound 3.16 µM
  viability, T/C: 46.4%
Second compound 0.316 µM, first compound 10 µM
  viability, T/C: 35.4%
Second compound 1 µM, first compound 0.0316 µM
  viability, T/C: 70%
Second compound 1 µM, first compound 0.1 µM
  viability, T/C: 51.5%
Second compound 1 µM, first compound 0.316 µM
  viability, T/C: 53.3%
Second compound 1 µM, first compound 1 µM
  viability, T/C: 45.1%
Second compound 1 µM, first compound 3.16 µM
  viability, T/C: 43.2%
Second compound 1 µM, first compound 10 µM
  viability, T/C: 40.1%
Second compound 3.16 µM, first compound 0.0316 µM
  viability, T/C: 61.7%
Second compound 3.16 µM, first compound 0.1 µM
  viability, T/C: 55.6%
Second compound 3.16 µM, first compound 0.316 µM
  viability, T/C: 51.4%
Second compound 3.16 µM, first compound 1 µM
  viability, T/C: 51.5%
Second compound 3.16 µM, first compound 3.16 µM
  viability, T/C: 37.1%
Second compound 3.16 µM, first compound 10 µM
  viability, T/C: 40.8%
Second compound 10 µM, first compound 0.0316 µM
  viability, T/C: 72.1%
Second compound 10 µM, first compound 0.1 µM
  viability, T/C: 56.7%
Second compound 10 µM, first compound 0.316 µM
  viability, T/C: 54.8%
Second compound 10 µM, first compound 1 µM
  viability, T/C: 51.3%
Second compound 10 µM, first compound 3.16 µM
  viability, T/C: 44.1%
Second compound 10 µM, first compound 10 µM
  viability, T/C: 38%
